The text below walks through data of patent EP0319576B1, “PROSTAGLANDIN DERIVATIVES, PROCESSES FOR PREPARING THEM AND PHARMACEUTICAL COMPOSITIONS CONTAINING SAID DERIVATIVES” (IBI- Istituto Biochimico Italiano Giovanni Lorenzini S.p.A., priority 1987, dated 1988).

Data set [1] in a line: Oral LD50 in the rat. To be noted: in vivo.
For data set [2], the system named is NaCl (2) 25%. Kind of data set: Cytoprotective activity in the rat, NaCl 25%. Conditions: read-out: Cytoprotective activity DE50, NaCl (2) 25%. Format: in vivo. On the procedure:
(§1) iv) Cytoprotective activity in the rat
(§2) The tests were carried out according to what has been described in literature: • 1 (A.Robert et al. Gastroenterology, 77, 433 (1979)) (Table 4) • 2 (Szabo et al. Sciene 214 (200) (1981)) (Table 4)

Data set [3] relates to Ethanol (1) +NEM. In words: Cytoprotective activity in the rat, Ethanol + NEM. Format: in vivo. To be noted: read-out: Cytoprotective activity DE50, Ethanol (1) +NEM. On the procedure: as §1, §2
Data set [4] relates to Acetyl salicyl-ic acid + HCl. In words: Cytoprotective activity in the rat, acetylsalicylic acid + HCl. To be noted: read-out: Cytoprotective activity DE50, Acetyl salicyl-ic acid + HCl. The data set is classed as in vivo. How it is done:
as §1, §2

The subject of data set [5] is NaOH (2) 0.2 N. Kind of data set: Cytoprotective activity in the rat, NaOH 0.2 N. The data set is classed as in vivo. To be noted: read-out: Cytoprotective activity DE50, NaOH (2) 0.2 N. How it is done:
as §1, §2

What is called LD50 is the dose at which mortality reaches 50%. A high value points to lower toxicity. The compound `CCCCCCC1CCC2(NC(=O)NC2=O)C1CCCCCCC(=O)O` (centres unmarked) [IBI-P-01028, 5-spiro-[2-(6-carboxy-ethyl)-3-hexyl-cyclopentyl]-imidazoline-2,4-dione] yielded an LD50 in data set [1] of 2000 mg/kg. Besides, the ED50 in data set [2] is 15 mg/kg; in data set [3] it was 30 mg/kg; in data set [4], 78 mg/kg; in data set [5], 18 mg/kg.
In turn, `CCCCCCC1CCC(N)C1CCCCCCC(OCC)OCC` (centres unmarked) [IBI-P-01053, 3-hexyl-2-(6-diethoxymethyl-hexyl)-cyclopentyl amine] had an LD50 in data set [1] of 3000 mg/kg. Also, the ED50 turned out to be 17 mg/kg in data set [2], 7 mg/kg in data set [3], 252 mg/kg in data set [4] and 6 mg/kg in data set [5].
Consider `CCCCCC1C(N)CCC1CCCCCCCCO` (centres unmarked) [IBI-P-10007, 2-pentyl-3-(8-hydroxy-octyl)-cyclopentyl amine], for which, in data set [1], the LD50 came out at 3000 mg/kg. Moreover, the ED50 in data set [2] turned out to be 4 mg/kg; in data set [3], 8 mg/kg; in data set [4], 165 mg/kg; in data set [5] it was 4 mg/kg.
As for `CCCCCCC1CCCC(N)C1CCCCCCC(=O)O` (centres unmarked) [IBI-P-05006, 3-hexyl-2-(6-carboxy-hexyl)-cyclohexyl-amine], the LD50 in data set [1] was 3000 mg/kg. In addition, the ED50 in data set [2] is 25 mg/kg; in data set [3] it was 20 mg/kg; in data set [4], more than 200 mg/kg; in data set [5] it was 9 mg/kg.
